Measurements: patent publication US6245736A, “Use of peptidic bradykinin antagonists for the treatment and prevention of Alzheimer's disease” (Aventis Pharma Deutschland GmbH, priority 1996, dated 2001)
Where no end group is shown, it is not given here.

Columns and labels:
Assay type in all cases: cell-based
[1] = tested on: human umbilical vein endothelial cells; assay: cGMP production stimulated by the Alzheimer protein β/A4 in endothelial cell cultures (HUVECs), radioimmunoassay
Text: (§1) Action of the compounds of the formula (I) on cGMP production stimulated by the Alzheimer protein β/A4 in endothelial cell cultures
(§2) Bovine aortic endothelial cell cultures (BAECs=bovine aortic endothelial cells), […] coronary rat endothelial cell cultures (RMCECs=rat microvascular coronary endothelial cells) and human umbilical vein endothelial cell cultures (HUVECs=human umbilical vein endothelial cells)
(§3) Determination of the effect of bradykinin antagonists of the formula (I) on the production of cGMP stimulated by administration of 0.1 and 1 μmol/l of the Alzheimer protein β/A4 in endothelial cell cultures of various species and organs.
(§4) In endothelial cells, bradykinin leads to an increase in the production of cGMP, which is determined by means of a radioimmunoassay. Increase in the formation of cGMP by bradykinin is an indicator of a release of NO (nitrogen monoxide) from endothelial cells.
(§5) Stimulation of cGMP production by βA(1-40) and inhibitory effect of the bradykinin antagonist HOE 140 (10^-7 mol/l) in 3 different types of endothelial cells: […]

[2] = tested on: rat microvascular coronary endothelial cells; assay: cGMP production stimulated by the Alzheimer protein β/A4 in endothelial cell cultures (RMCECs), radioimmunoassay
Text: as §1, §2, §3, §4, §5

[3] = tested on: bovine aortic endothelial cells; assay: cGMP production stimulated by the Alzheimer protein β/A4 in endothelial cell cultures (BAECs), radioimmunoassay
Text: as §1, §2, §3, §4, §5

[4] = simultaneous incubation with HOE 140 0.1 μmol/l
[5] = stimulated with BK 10^-8 mol/l + HOE 140 (10^-7 mol/l)
[6] = stimulated with βA (1-40) 10^-6 mol/l + HOE 140 (10^-7 mol/l)
[7] = stimulated with βA (1-40) 10^-7 mol/l + HOE 140 (10^-7 mol/l)

## βA (1-40): Alzheimer protein amyloid (β/A4), used to stimulate cGMP production [reference compound]
[1]; βA (1-40) 10^-6 mol/l alone
  cGMP production: 15.3 ± 1.9 pmol/mg of protein
[1]; βA (1-40) 10^-7 mol/l alone
  cGMP production: 14.07 ± 1.6 pmol/mg of protein
[2]; βA (1-40) 10^-6 mol/l alone
  cGMP production: 0.74 ± 0.09 pmol/mg of protein
[2]; βA (1-40) 10^-7 mol/l alone
  cGMP production: 0.59 ± 0.07 pmol/mg of protein
[3]; βA (1-40) 10^-6 mol/l alone
  cGMP production: 4.6 ± 0.13 pmol/mg of protein
[3]; βA (1-40) 10^-7 mol/l alone
  cGMP production: 5.9 ± 0.23 pmol/mg of protein

## RPPGFSPFR [BK, bradykinin]
[1]; BK 10^-8 mol/l alone
  cGMP production: 11.46 ± 2 pmol/mg of protein
[2]; BK 10^-8 mol/l alone
  cGMP production: 1.13 ± 0.2 pmol/mg of protein
[3]; BK 10^-8 mol/l alone
  cGMP production: 8.8 ± 0.34 pmol/mg of protein

## N=C(N)NCCC[C@@H](N)C(=O)N[C@@H](CCCNC(=N)N)C(=O)N1CCC[C@H]1C(=O)N1C[C@H](O)C[C@H]1C(=O)NCC(=O)N[C@@H](Cc1cccs1)C(=O)N[C@@H](CO)C(=O)N1Cc2ccccc2C[C@@H]1C(=O)N1[C@H](C(=O)N[C@@H](CCCNC(=N)N)C(=O)O)C[C@@H]2CCCC[C@@H]21 [HOE 140, H-D-Arg-Arg-Pro-Hyp-Gly-Thi-Ser-D-Tic-Oic-Arg-OH]
[1]; [4]
  effect on the stimulation of the production of cGMP induced by the β/A4 protein: prevents the stimulation of the production of cGMP
[1]; [5]
  cGMP production: 3.45 ± 0.45 pmol/mg of protein
[1]; [6]
  cGMP production: 5.3 pmol/mg of protein
[1]; [7]
  cGMP production: 4.0 pmol/mg of protein
[2]; [4]
  effect on the stimulation of the production of cGMP induced by the β/A4 protein: prevents the stimulation of the production of cGMP
[2]; [5]
  cGMP production: 0.22 ± 0.02 pmol/mg of protein
[2]; [6]
  cGMP production: 0.32 ± 0.05 pmol/mg of protein
[2]; [7]
  cGMP production: 0.34 ± 0.02 pmol/mg of protein
[3]; [4]
  effect on the stimulation of the production of cGMP induced by the β/A4 protein: prevents the stimulation of the production of cGMP
[3]; [5]
  cGMP production: 2.2 ± 0.2 pmol/mg of protein
[3]; [6]
  cGMP production: 2.2 ± 0.2 pmol/mg of protein
[3]; [7]
  cGMP production: 2.2 ± 0.28 pmol/mg of protein
